Earlier results, collected in paper PMC5590095 (Chemical Science, 2017).

Test system: tubulin

## Celogentin C
  inhibitory activity against tubulin polymerization: inhibitory activity against tubulin polymerization
